Reference: ChEMBL document CHEMBL5038666, “Discovery of DNA-Targeting HDAC Inhibitors with Potent Antitumor Efficacy In Vivo That Trigger Antitumor Immunity” (J Med Chem, 2022)
pIC50: −log10 of the molar value. Active and inactive are the calls of the source. The rule behind the calls is not given here.

What was measured:
KG-1 [1] = assay: Antiproliferative activity against human KG-1 cells assessed as inhibition of cell growth measured after 48 hrs by MTT assay; type: functional, cell-based; conditions: KG-1, 48 h
B16-F10 [2] = assay: Antitumor activity against mouse B16-F10 cells xenografted in C57BL/6J mouse assessed as change in tumor cell morphology into normal tissue at 60 mg/kg, IG administered for 12 days by H and E staining based histopathological analysis; type: functional, organism-based; conditions: time 12.0 day
[3] = Toxicity in C57BL/6J mouse implanted with mouse B16-F10 cells assessed as effect on body weight at 60 mg/kg, IG administered for 12 days; type: organism-based; conditions: in vivo, po, 288 h, time 12 day
B16-F10 [4] = assay: Antitumor activity against mouse B16-F10 cells implanted in C57BL/6J mouse assessed as reduction on tumor size at 60 mg/kg, IG administered for 12 days; type: functional, organism-based; conditions: time 12.0 day
KG-1 [5] = assay: Downregulation of SPT16 expression in human KG-1 cells assessed as chromatin damage at 0.5 to […] measured after 24 hrs by Western blot analysis; type: functional, cell-based; conditions: dose 0.5-2.5 µM
B16-F10 [6] = assay: Antitumor activity against mouse B16-F10 cells xenografted in C57BL/6J mouse assessed as reduction in tumor heterogeneity at 60 mg/kg, IG administered for 12 days by H and E staining based histopathological analysis; type: functional, organism-based; conditions: time 12.0 day
B16-F10 [7] = assay: Antitumor activity against mouse B16-F10 cells implanted in C57BL/6J mouse assessed as reduction on tumor volume at 60 mg/kg, IG administered for 12 days; type: functional, organism-based; conditions: time 12.0 day
KG-1 [8] = assay: Downregulation of SSRP-1 expression in human KG-1 cells assessed as chromatin damage at 0.5 to […] measured after 24 hrs by Western blot analysis; type: functional, cell-based; conditions: dose 0.5-2.5 µM
[9] = Toxicity in C57BL/6J mouse implanted with mouse B16-F10 cells assessed as glomerular structure damage in kidney at 60 mg/kg, IG administered for 12 days H and E staining based histopathological analysis; type: organism-based; conditions: in vivo, po, 288 h, time 12 day
B16-F10 [10] = assay: Antitumor immunity against mouse B16-F10 cells implanted in C57BL/6J mouse assessed as increase in proportion of T cells in spleen by flow cytometry analysis; type: functional, cell-based
B16-F10 [11] = assay: Antitumor activity against mouse B16-F10 cells implanted in C57BL/6J mouse assessed as reduction on tumor weight at 60 mg/kg, IG administered for 12 days; type: functional, organism-based; conditions: time 12.0 day
KG-1 [12] = assay: Induction of apoptosis in human KG-1 cells assessed as total apoptotic cells at 1 uM measured after 24 hrs by Annexin V-FITC/propidium iodide staining based flow cytometry analysis relative to control; type: functional
[13] = Toxicity in C57BL/6J mouse implanted with mouse B16-F10 cells assessed as lung damage at 60 mg/kg, IG administered for 12 days H and E staining based histopathological analysis; type: organism-based; conditions: in vivo, po, 288 h, time 12 day
[14] = Toxicity in C57BL/6J mouse implanted with mouse B16-F10 cells assessed as heart damage at 60 mg/kg, IG administered for 12 days H and E staining based histopathological analysis; type: organism-based; conditions: in vivo, po, 288 h, time 12 day
[15] = Toxicity in C57BL/6J mouse implanted with mouse B16-F10 cells assessed as spleen damage at 60 mg/kg, IG administered for 12 days H and E staining based histopathological analysis; type: organism-based; conditions: in vivo, po, 288 h, time 12 day
[16] = Toxicity in C57BL/6J mouse implanted with mouse B16-F10 cells assessed as liver damage at 60 mg/kg, IG administered for 12 days H and E staining based histopathological analysis; type: organism-based; conditions: in vivo, po, 288 h, time 12 day
Histone deacetylase = assay: Inhibition of HDAC in human HeLa nuclear extract using fluorogenic substrate incubated for 30 mins by fluorescence based assay; type: cell-based
Histone deacetylase 1 = Histone deacetylase 1 (Homo sapiens, UniProt Q13547); assay: Inhibition of HDAC1 (unknown origin) using fluorogenic substrate incubated for 30 mins by fluorescence based assay
PC-3 = assay: cells; type: functional, cell-based; conditions: Homo sapiens, PC-3, 48 h
Description: Antiproliferative activity against human PC3 cells assessed as inhibition of cell growth measured after 48 hrs by MTT assay

Histone deacetylase 2 = Histone deacetylase 2 (Homo sapiens, UniProt Q92769); assay: Inhibition of HDAC2 (unknown origin) using fluorogenic substrate incubated for 30 mins by fluorescence based assay
Histone deacetylase 8 = target: T1, Histone deacetylase 8 (Homo sapiens, UniProt Q9BY41); assay: Inhibition of HDAC8 (unknown origin) using fluorogenic substrate incubated for 30 mins by fluorescence based assay
T1 sequence (Q9BY41 whole entry): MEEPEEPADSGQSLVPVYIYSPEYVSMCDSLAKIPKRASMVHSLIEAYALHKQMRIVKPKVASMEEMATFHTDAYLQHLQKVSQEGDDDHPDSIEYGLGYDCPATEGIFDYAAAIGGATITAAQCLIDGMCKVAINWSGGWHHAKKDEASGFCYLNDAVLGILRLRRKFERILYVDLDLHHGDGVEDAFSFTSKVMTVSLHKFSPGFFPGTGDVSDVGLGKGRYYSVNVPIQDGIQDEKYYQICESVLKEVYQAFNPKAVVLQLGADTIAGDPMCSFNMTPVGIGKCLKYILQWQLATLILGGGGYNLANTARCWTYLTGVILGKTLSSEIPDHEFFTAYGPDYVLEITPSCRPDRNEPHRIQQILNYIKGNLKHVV

K562 = assay: cells; type: functional, cell-based; conditions: Homo sapiens, K562, 48 h
Description: Antiproliferative activity against human K562 cells assessed as inhibition of cell growth measured after 48 hrs by MTT assay

HEL = assay: cells; type: functional, cell-based; conditions: Homo sapiens, 48 h
Description: Antiproliferative activity against HEL cells assessed as inhibition of cell growth measured after 48 hrs by MTT assay

HepG2 = assay: cells; type: functional, cell-based; conditions: Homo sapiens, HepG2, 48 h
Description: Antiproliferative activity against human HepG2 cells assessed as inhibition of cell growth measured after 48 hrs by MTT assay

[17] = target: T2, Protein deacetylase HDAC6 (Homo sapiens, UniProt Q9UBN7); assay: Inhibition of HDAC6 (unknown origin) using fluorogenic substrate incubated for 30 mins by fluorescence based assay
T2 sequence (Q9UBN7 whole entry): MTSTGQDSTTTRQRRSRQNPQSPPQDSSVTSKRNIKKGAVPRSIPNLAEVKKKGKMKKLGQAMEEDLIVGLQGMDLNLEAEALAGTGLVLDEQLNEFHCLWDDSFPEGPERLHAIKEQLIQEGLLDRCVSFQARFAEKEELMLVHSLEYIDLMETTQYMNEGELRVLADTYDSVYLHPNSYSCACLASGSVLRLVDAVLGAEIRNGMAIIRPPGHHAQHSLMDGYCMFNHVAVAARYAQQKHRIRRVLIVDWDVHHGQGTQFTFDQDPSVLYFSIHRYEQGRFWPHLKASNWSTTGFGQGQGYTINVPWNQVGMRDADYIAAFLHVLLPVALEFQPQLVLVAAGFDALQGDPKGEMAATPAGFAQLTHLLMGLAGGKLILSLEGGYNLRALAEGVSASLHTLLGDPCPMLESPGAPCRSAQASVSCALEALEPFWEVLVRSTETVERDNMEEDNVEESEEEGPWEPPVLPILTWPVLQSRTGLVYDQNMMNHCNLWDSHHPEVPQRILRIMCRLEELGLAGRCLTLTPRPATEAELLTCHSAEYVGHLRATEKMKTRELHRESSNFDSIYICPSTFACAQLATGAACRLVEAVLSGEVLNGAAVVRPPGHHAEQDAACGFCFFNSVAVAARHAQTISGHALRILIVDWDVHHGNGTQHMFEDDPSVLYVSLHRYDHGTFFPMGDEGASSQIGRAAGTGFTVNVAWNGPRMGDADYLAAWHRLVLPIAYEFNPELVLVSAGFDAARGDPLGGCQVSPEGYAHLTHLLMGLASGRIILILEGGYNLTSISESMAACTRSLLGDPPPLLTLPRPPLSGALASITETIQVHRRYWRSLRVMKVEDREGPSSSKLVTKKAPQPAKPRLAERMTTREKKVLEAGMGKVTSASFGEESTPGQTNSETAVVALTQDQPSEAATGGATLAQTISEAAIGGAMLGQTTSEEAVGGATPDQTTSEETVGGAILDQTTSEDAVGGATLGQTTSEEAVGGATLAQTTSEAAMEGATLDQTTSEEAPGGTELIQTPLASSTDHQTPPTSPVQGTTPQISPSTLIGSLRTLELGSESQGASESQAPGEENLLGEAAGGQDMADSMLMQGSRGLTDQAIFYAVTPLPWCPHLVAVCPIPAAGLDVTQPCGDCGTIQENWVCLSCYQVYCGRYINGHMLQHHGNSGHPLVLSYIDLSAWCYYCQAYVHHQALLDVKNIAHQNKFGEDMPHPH

Calf thymus DNA [18] = assay: Binding affinity to calf thymus DNA assessed as increase in absorption at 20 uM by UV-vis absorption spectroscopy; type: nucleic-acid assay; conditions: Bos taurus
Calf thymus DNA [19] = assay: Binding affinity to calf thymus DNA assessed as change in entropy at 500 microM by isothermal titration calorimetric analysis; type: nucleic-acid assay; conditions: Bos taurus
DNA = assay: Binding affinity to nuclear DNA in human HepG2 cells assessed as colocalization of acridine orange-test compound signal at 5 uM by confocal fluorescence microscopic analysis; type: functional, cell-based

Sequence of Histone deacetylase 1 (Q13547 whole entry): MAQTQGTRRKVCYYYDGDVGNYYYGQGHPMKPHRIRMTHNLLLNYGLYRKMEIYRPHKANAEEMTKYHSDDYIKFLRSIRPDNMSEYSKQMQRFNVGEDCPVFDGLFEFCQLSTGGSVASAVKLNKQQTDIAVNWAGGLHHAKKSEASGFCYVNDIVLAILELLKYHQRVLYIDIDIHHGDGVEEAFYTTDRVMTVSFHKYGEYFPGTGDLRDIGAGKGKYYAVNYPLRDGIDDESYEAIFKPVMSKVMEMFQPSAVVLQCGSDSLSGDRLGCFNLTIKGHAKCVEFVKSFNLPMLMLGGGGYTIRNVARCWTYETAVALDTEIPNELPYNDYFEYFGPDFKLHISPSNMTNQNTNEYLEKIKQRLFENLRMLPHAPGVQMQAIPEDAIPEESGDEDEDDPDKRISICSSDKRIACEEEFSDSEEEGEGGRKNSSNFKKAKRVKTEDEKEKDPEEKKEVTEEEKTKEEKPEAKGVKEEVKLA
Sequence of Histone deacetylase 2 (Q92769 whole entry): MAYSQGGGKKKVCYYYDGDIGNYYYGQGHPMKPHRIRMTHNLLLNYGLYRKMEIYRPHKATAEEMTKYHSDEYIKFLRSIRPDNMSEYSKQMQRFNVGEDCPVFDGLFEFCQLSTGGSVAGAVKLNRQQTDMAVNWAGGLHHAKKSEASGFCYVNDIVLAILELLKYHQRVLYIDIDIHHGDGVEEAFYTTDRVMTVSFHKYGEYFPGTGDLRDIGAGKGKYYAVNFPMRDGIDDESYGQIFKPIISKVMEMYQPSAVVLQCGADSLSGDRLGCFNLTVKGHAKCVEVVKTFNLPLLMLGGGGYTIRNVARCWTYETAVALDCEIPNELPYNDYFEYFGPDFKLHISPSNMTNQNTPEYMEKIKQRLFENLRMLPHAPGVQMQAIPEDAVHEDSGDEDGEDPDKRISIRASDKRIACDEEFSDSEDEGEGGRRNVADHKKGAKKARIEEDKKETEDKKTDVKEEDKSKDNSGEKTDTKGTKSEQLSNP

## O=C(CCCCCCC(=O)Nc1ccccc1)NO [VORINOSTAT]
KG-1 [1]
  pIC50: 7.15
B16-F10 [2]
  Activity: Active
[3]
  Activity: Non-Toxic
B16-F10 [4]
  Activity: Active
KG-1 [5]
  Activity: inactive
B16-F10 [6]
  Activity: Active
B16-F10 [7]
  Activity: Active
KG-1 [8]
  Activity: inactive
[9]
  Activity: Toxic
B16-F10 [10]
  Activity: Active
B16-F10 [11]
  Activity: Active
KG-1 [12]
  Activity: 18.2%
[13]
  Activity: Non-Toxic
[14]
  Activity: Non-Toxic
[15]
  Activity: Non-Toxic
[16]
  Activity: Non-Toxic

## O=C(CCCCOc1cccc(-c2nc3ccc(-c4nc5ccccc5[nH]4)cc3[nH]2)c1)NO
Histone deacetylase
  IC50: 0.3043 µM

## O=C(CCCCCCCOc1ccc(-c2nc3ccccc3[nH]2)cc1)NO
Histone deacetylase
  IC50: 0.0493 µM

## O=C(CCCOc1cccc(-c2nc3ccc(-c4nc5ccccc5[nH]4)cc3[nH]2)c1)NO
Histone deacetylase
  IC50: 0.05 µM

## O=C(CCCCOc1ccc(-c2nc3ccc(-c4nc5ccccc5[nH]4)cc3[nH]2)cc1)NO
Histone deacetylase
  IC50: 0.2188 µM

## O=C(CCCOc1ccc(-c2nc3ccc(-c4nc5ccccc5[nH]4)cc3[nH]2)cc1)NO
Histone deacetylase
  IC50: > 1 µM

## O=C(COc1ccc(-c2nc3ccccc3[nH]2)cc1)NO
Histone deacetylase
  IC50: 0.1567 µM

## CN1CCN(c2ccc3nc(-c4ccc5nc(-c6ccc(O)cc6)[nH]c5c4)[nH]c3c2)CC1
KG-1 [1]
  pIC50: 4.38

## O=C(CCCOc1ccc(-c2nc3ccccc3[nH]2)cc1)NO
Histone deacetylase
  IC50: 0.9813 µM

## O=C(CCCCCOc1ccc(-c2nc3ccc(-c4nc5ccccc5[nH]4)cc3[nH]2)cc1)NO
Histone deacetylase
  IC50: 0.04362 µM

## O=C(COc1cccc(-c2nc3ccccc3[nH]2)c1)NO
Histone deacetylase
  IC50: > 1 µM

## O=C(CCCOc1cccc(-c2nc3ccccc3[nH]2)c1)NO
Histone deacetylase
  IC50: 0.4904 µM

## O=C(CCCCCOc1cccc(-c2nc3ccccc3[nH]2)c1)NO
Histone deacetylase
  IC50: 0.1186 µM

## O=C(CCCCOc1cccc(-c2nc3ccccc3[nH]2)c1)NO
Histone deacetylase
  IC50: 0.1944 µM

## O=C(CCCCCOc1cccc(-c2nc3ccc(-c4nc5ccccc5[nH]4)cc3[nH]2)c1)NO
Histone deacetylase
  IC50: 0.0274 µM

## O=C(CCCCCCCOc1ccc(-c2nc3ccc(-c4nc5ccccc5[nH]4)cc3[nH]2)cc1)NO
Histone deacetylase
  IC50: 0.0201 µM

## O=C(COc1ccc(-c2nc3ccc(-c4nc5ccccc5[nH]4)cc3[nH]2)cc1)NO
Histone deacetylase
  IC50: > 1 µM

## O=C(CCCCOc1ccc(-c2nc3ccccc3[nH]2)cc1)NO
Histone deacetylase
  IC50: 0.1891 µM

## O=C(CCCCCOc1ccc(-c2nc3ccccc3[nH]2)cc1)NO
Histone deacetylase
  IC50: 0.076 µM

## O=C(CCCCCCOc1ccc(-c2nc3ccccc3[nH]2)cc1)NO
Histone deacetylase
  IC50: 0.0403 µM

## O=C(CCCCCCOc1cccc(-c2nc3ccc(-c4nc5ccccc5[nH]4)cc3[nH]2)c1)NO
Histone deacetylase
  IC50: 0.0179 µM

## O=C(COc1cccc(-c2nc3ccc(-c4nc5ccccc5[nH]4)cc3[nH]2)c1)NO
Histone deacetylase
  IC50: > 1 µM

## O=C(CCCCCCCOc1cccc(-c2nc3ccc(-c4nc5ccccc5[nH]4)cc3[nH]2)c1)NO
KG-1 [1]
  pIC50: 5.80
Histone deacetylase 1
  pIC50: 7.33
PC-3
  pIC50: 5.16
Histone deacetylase 2
  pIC50: 7.09
Histone deacetylase 8
  pIC50: < 4.70
K562
  pIC50: 5.54
Histone deacetylase
  IC50: 0.0073 µM
HEL
  pIC50: 5.64
HepG2
  pIC50: 4.80
[17]
  pIC50: 7.64

## O=C(CCCCCCOc1ccc(-c2nc3ccc(-c4nc5ccccc5[nH]4)cc3[nH]2)cc1)NO
KG-1 [1]
  pIC50: 5.85
Histone deacetylase 1
  pIC50: 7.51
PC-3
  pIC50: 5.36
Histone deacetylase 2
  pIC50: 7.49
Histone deacetylase 8
  pIC50: < 4.70
Calf thymus DNA [18]
  Activity: Active
Calf thymus DNA [19]
  -TdeltaS: 190 kJ/mol
DNA
  Activity: Active
K562
  pIC50: 6.29
Histone deacetylase
  IC50: 0.0076 µM
HEL
  pIC50: 5.72
HepG2
  pIC50: 4.96
[17]
  pIC50: 7.54
